Laboratory results taken from patent US20240390371A1, “HETEROARYL AND HETEROCYCLIC COMPOUNDS FOR TREATING ACUTE INFLAMMATION” (TES Pharma S.r.l., priority 2023, published 2024).

Legend:
[1] = system: Kupffer cells; assay: Gene expression in Kupffer cells after LPS-induced inflammation; type: cell-based, mouse; settings: compound 10 μM
Description: […] stimulated with LPS overnight […] (1 mg/mL stock solution in H2O, dispensed at 50 ng/mL in the well) final concentration. Cells treated with DMSO were used as control at the final concentration of 0.5% in medium. All the wells were normalized with DMSO at 0.5% final concentration. The supernatant was collected to measure cytokine secretion using a Bio-Plex Pro mouse cytokine 23-plex assay system (cat #M60009RDPD) using a Bio-Plex Instrument. The cells were washed once with PBS, and then lysed to extract total RNA for performing RT-PCR to evaluate ACMSD modulation of IL-10, SIRT1, and STAT3 gene expression.
Briefly, total RNA was extracted from the cells using the manufacturer's protocol for Qiagen RNeasy Plus Mini Kit (cat. 74134). The total RNA concentration was quantified using an Implen Instrument, and the purity was evaluated by measuring the ratio of A260/A280.
Total RNA (1 μg) was reverse transcribed using the manufacturer's protocol for SuperScript IV VILO Master Mix (ThermoFisher cat. #. 11756500). Real-time PCR was then performed in CFX 96 Real Time System (Bio-Rad) as follows: denaturation at 95° C. for 2 minutes, followed by 40 cycles at 95° C. for 10 s, and hybridization at 60° C. for 20 s. QPCR was performed using the 2× QuantiNova SYBR Green PCR Master Mix (Qiagen). Mouse β2 microglobulin (m β2M) was used as a reference gene.
Following inflammation induced by LPS (Kupffer cells treated with LPS 50 ng/mL […] incubation time) ACMSD inhibition, with compound I-34, reverses the changes in the expression of inflammatory modulators. Expression of pro-inflammatory genes is reduced (TNF-α, IL-6, and iNOS) and that of anti-inflammatory genes is increased (Arg-1, IL-10, and MRC2) by ACMSD inhibition.

[2] = system: HK-2 cells; assay: Fibrotic gene expression in HK-2 cells after TGFβ insult; type: cell-based; settings: pre-treatment, TGFβ insult at 10 ng/mL
Text: (§1) ((N=3) One way Anova: Dunnett's test: **p<0.01, ***p<0.001; vs pathological control.)

[3] = system: Kupffer cells; assay: Cytokine secretion in Kupffer cells exposed to LPS; type: cell-based, mouse; settings: LPS 24 h, compound 1 μM
Text: […] Cells treated with DMSO were used as control at the final concentration of 0.5% in medium. All the wells were normalized with DMSO at 0.5% final concentration. The supernatant was collected to measure cytokine secretion using a Bio-Plex Pro mouse cytokine 23-plex assay system (cat #M60009RDPD) using a Bio-Plex Instrument. The cells were washed once with PBS, and then lysed to extract total RNA for performing RT-PCR to evaluate ACMSD modulation of IL-10, SIRT1, and STAT3 gene expression.
All cytokine secretion values were normalized to the luminescent signal relative to the measuring of the cellular ATP (CellTiter-Glo cat #G7571)).
(§2) (One way Anova: Dunnett's test: **p<0.01, ***p<0.001; vs pathological control.)

[4] = system: HK-2 proximal tubule cells; assay: Cisplatin-induced apoptosis (Caspases 3/7 activity) in HK-2 cells; type: cell-based; settings: Cisplatin 50 μM; compound 10, 50 and 100 μM added 1 hr before Cisplatin injury
Text: as §1

[5] = system: mouse primary hepatocytes and murine stellate cells; assay: Gene expression in co-cultured mouse primary hepatocytes and murine stellate cells exposed to free fatty acids; type: cell-based; settings: co-culture exposed to free fatty acids (MIX)
Text: Mouse primary hepatocytes and murine stellate cells were co-cultured with FFA to induce fibrosis as observed in NASH patients.
as §2

[6] = system: 3D human liver microtissues; assay: Cytokine expression and secretion in 3D human liver microtissues (organoids); type: cell-based; settings: free fatty acids mix and LPS 10 μg/mL, compound 10 and 50 μM, dose-response manner
Description: 3D InSight™ Human Liver Microtissues (organoids) composed of multi-donor primary human hepatocytes in co-culture with Non-Parenchymal Cells (NPC), containing primary human Kupffer cells and primary Liver Endothelial Cells (LEC) were provided by Insphero, Switzerland. These human liver organoids to evaluate the anti-inflammatory effect of ACMSD inhibition.
The organoids were treated with free fatty acids (palmitic acid and oleic acid according to manufacturer's instructions) and lipopolisaccaride (LPS) in a diabetic medium (Insphero) at the concentration of 10 μg/mL to induce lipid accumulation in hepatocytes and pro-inflammatory cytokine secretion including; TNF-α, IL-6, IL-8, MCP-1, and MIP1α. Vehicle control solution was prepared as negative control. DMSO was maintained constant concentration of 0.1% total solution.
Two concentrations of compound I-34 (10 μM and 50 μM) were used and added together with the NASH stimuli mix. Cytokine secretion was measured in cell medium at day 4 following treatment using the Bio-Plex Pro Human Cytokine Screening Panel (Bio-Rad) according to manufacturer's instructions.
3D human liver microtissues were treated with vehicle (DMSO), a mix of free fatty acids and LPS (10 μg/mL) and mix together with two concentrations of compound I-34 (10 and 50 μM). […]

[7] = system: HK-2 cells; assay: Gene expression in HK-2 cells after LPS stimulus; type: cell-based
Description: ((N=3) One way Anova: Dunnett's test: **p<0.01 vs pathological control.)
ACMSD inhibition, with compound I-34, decreased inflammatory gene expression (IL-6 and TNF-α) in HK-2 cells following an 18 h stimulus with 30 μg/ml of LPS.

[8] = 18 h stimulus with 30 μg/ml LPS, compound 100 μM

N#Cc1c(Cc2ccccc2)nc(SCc2cccc(-c3nnn[nH]3)c2)[nH]c1=O [Compound I-34, 4-Benzyl-6-oxo-2-[3-(1H-tetrazol-5-yl)-benzylsulfanyl]-1,6-dihydro-pyrimidine-5 carbonitrile]
Expression of anti-inflammatory genes (Arg-1, IL-10, and MRC2) ([1]; LPS 50 ng/mL): increased
Expression of pro-inflammatory genes (TNF-α, IL-6, and iNOS) ([1]; LPS 50 ng/mL): reduced
QPRT expression ([1]; LPS): reversed LPS-induced reduction of QPRT expression
Fibrotic gene expression (Fibronectin and TIMP2) [2]: decreased fibrotic gene expression (Fibronectin and TIMP2) in a dose response manner
Secretion of pro inflammatory cytokines (IL-1β, IL-6, TNF-α) [3]: decreased
Cisplatin-induced apoptosis (Caspases 3/7 activity) [4]: provides protection
Expression of pro-fibrotic and pro-inflammatory genes [5]: decreased
Cytokine secretion (hepatic inflammation) ([6]; day 4): reducing
Cytokine expression (hepatic inflammation) [6]: reducing
ACMSD expression [7, 8]: does not significantly affect
Inflammatory gene expression (IL-6 and TNF-α) [7, 8]: decreased
Inflammatory gene expression (IL-6 and TNF-α), dose response ([7]; 18 h stimulus with 30 μg/ml LPS, several concentrations): decreased inflammatory gene expression (IL-6 and TNF-α) in a dose response manner
QPRT expression ([7]; LPS 18 h, compound 100 μM): reversed LPS-induced reduction of QPRT expression
